Patent US6251882A, “Alkyl ketones as potent anti-cancer agents” (Parker Hughes Institute, priority 1999, dated 2001)

Tests used:
Nalm-6 (B-lineage ALL) = test: MTT cytotoxicity assay, Nalm-6; assay type: cell-based; conditions: Homo sapiens, 24-36 hours at 37° C., 0.1 to 250 μM
Method: (§1) Cytotoxicity of various compounds against tumor cells was performed using the MTT (3-[4,5-[…]]-2,5-diphenyl tetrazolium bromide) assay (Boehringer Mannheim Corp., Indianapolis, Ind.). Unless otherwise specified, all cell lines were obtained from the American Type Culture Collection (ATCC). Briefly, exponentially growing cells were seeded into a 96-well plate at a density of 2.5×10^4 cells/well and incubated for 36 hours at 37° C. prior to drug exposure. On the day of treatment, culture medium was carefully aspirated from the wells and replaced with fresh medium containing the indicated compound at concentrations ranging from 0.1 to 250 μM. Triplicate wells were used for each treatment.
(§2) Human leukemic cell lines (NALM-6, MOLT-3) glioblastoma cells (U373) and human breast tumor cell lines (BT20 and MDA-MB-231) were obtained from the American Type Culture Collection and maintained as a continuous cell line in Dulbecco's modified Eagles's medium supplemented with 10% fetal bovine serum and antibiotics.
(§3) The cells were incubated with the various compounds for 24-36 hours at 37° C. in a humidified 5% CO2 atmosphere. To each well, 10 μl of MTT (0.5 mg/ml final concentration) was added and the plates were incubated at 37° C. for 4 hours to allow MTT to form formazan crystals by reacting with metabolically active cells. The formazan crystals were solubilized overnight at 37° C. in a solution containing 10% SDS in 0.01 M HCl. The absorbence of each well was measured in a microplate reader (Labsystems) at 540 nm and a reference wavelength of […]. To translate the OD540 values into the number of live cells in each well, the OD540 values were compared to those on standard OD540 --versus--cell number curves generated for each cell line. The percent survival was calculated using the formula: [formula]
(§4) The IC50 values were calculated by non-linear regression analysis and are shown below in Tables 1-6.

Molt-3 (T-lineage ALL) = test: MTT cytotoxicity assay, Molt-3; assay type: cell-based, human; conditions: Homo sapiens, MOLT-3, MTT, 24-36 hours at 37° C., 0.1 to 250 μM
Method: as §1, §2, §3, §4

BT-20 (breast cancer) = test: MTT cytotoxicity assay, BT-20; assay type: cell-based; conditions: Homo sapiens, 24-36 hours at 37° C., 0.1 to 250 μM
Method: as §1, §2, §3, §4

PC-3 (prostate cancer) = test: MTT cytotoxicity assay, PC-3; assay type: cell-based; conditions: 24-36 hours at 37° C., 0.1 to 250 μM
Method: as §1, §3, §4

U-373 (glioblastoma) = test: MTT cytotoxicity assay, U-373; assay type: cell-based; conditions: Homo sapiens, U373 MG, 24-36 hours at 37° C., 0.1 to 250 μM
Method: as §1, §2, §3, §4

Structure (SMILES)	IC50 (Nalm-6 (B-lineage ALL))	IC50 (Molt-3 (T-lineage ALL))	IC50 (BT-20 (breast cancer))	IC50 (PC-3 (prostate cancer))	IC50 (U-373 (glioblastoma))
COc1ccc(CSC[C@H](NC(C)=O)C(=O)CCl)cc1 [HI-351, N-Ac-S-4-methoxybenzyl-cysteine chloromethyl ketone]	60.2 µM	4.75 µM	73.1 µM	43.8 µM	45.6 µM
CC(=O)N[C@@H](CSC(C)(C)C)C(=O)CCl [HI-349, N-Ac-S-t-butyl-cysteine chloromethyl ketone]	71 µM	71.9 µM	> 100 µM	> 100 µM	> 100 µM
CC(C)=CCC/C(C)=C/CC/C(C)=C/CSCCC(=O)C=[N+]=[N-] [HI-83, S-trans-trans-Farnesyl-mercaptoethyl diazomethyl ketone]	53.5 µM	6.8 µM	> 100 µM	> 100 µM	> 100 µM
CCCCCCCCCCCCSC[C@H](NC(=O)C(F)(F)F)C(=O)CCl [HI-490, N-Trifluoroacetyl-S-dodecyl-cysteine chloromethyl ketone]	32.6 µM	41.3 µM	> 100 µM	> 100 µM	> 100 µM
CC(=O)N[C@@H](CSCc1ccc2ccccc2c1)C(=O)CCl [HI-392, N-Ac-S-2-naphthylmethyl-cysteine chloromethyl ketone]	2.6 µM	2.9 µM	40.4 µM	36.6 µM	41.8 µM
C=CCSC[C@H](NC(C)=O)C(=O)CCl [HI-419, N-Ac-S-allyl-cysteine chloromethyl ketone]	4.3 µM	7.3 µM	55.7 µM	> 100 µM	56.7 µM
CC(=O)N[C@@H](CSC/C=C(\C)CC/C=C(\C)CCC=C(C)C)C(=O)CCl [HI-368, N-Ac-S-trans-trans-farnesyl-Cys chloromethyl ketone]	3 µM	1.4 µM	55.8 µM	26.8 µM	61.3 µM
CCCCCCCCCCCCSC[C@H](NC(=O)c1ccccc1)C(=O)CCl [HI-491, N-Benzoyl-S-dodecyl-cysteine chloromethyl ketone]	5.4 µM	6.5 µM	> 100 µM	52.1 µM	> 100 µM
